Measurements from ChEMBL document CHEMBL5608182, “Synthesis and evaluation of neuroactive steroids with novel pharmacophore at C-21 let identify a compound with advantageous PK profile and higher EC50 and Emax as PAM on GABAA receptor” (Eur J Med Chem, 2024).

How the values were obtained:
[1] = biological target: Gamma-aminobutyric acid receptor subunit alpha-4/beta3/delta (Homo sapiens) (UniProt P28472+P48169+O14764); assay: (§1) Positive allosteric modulation of extrasynaptic alpha4beta3delta GABA-A receptor (unknown origin) transfected in CHO cells assessed as potentiation of GABA-induced peak current amplitude by measuring maximal efficacy at 0.01 to 10 uM at -80 mV holding potential preincubated for 30 secs followed by GABA stimulation for 2 secs by manual patch assay relative to control; format: cell-based; details: filed as positive allosteric modulator, dose 0.01-10 µM, time 32.0 sec
[2] = Metabolic stability in Sprague-Dawley rat liver microsomes assessed as intrinsic clearance at 1 uM preincubated for 10 mins followed by NADPH addition by LC-MS analysis; format: ADME, Microsome; details: read-out: CLH
[3] = Drug concentration in Sprague-Dawley rat brain at 24.4 micromol/kg, IG measured after 6 hrs by LC-MS/MS analysis; format: ADME, tissue-based; details: in vivo, po, dose 24.4 µmol/kg
[4] = biological target: T1, GABA-A receptor; alpha-1/beta-2/gamma-2 (Homo sapiens, UniProt P14867+P18507+P47870); assay: Positive allosteric modulation of synaptic alpha1beta2gamma2 GABA-A receptor (unknown origin) transfected in LTK cells assessed as potentiation of GABA-induced peak current amplitude at -80 mV holding potential preincubated for 30 secs followed by GABA stimulation for 2 secs by Q-patch assay; format: cell-based
T1 sequence (P14867 whole entry): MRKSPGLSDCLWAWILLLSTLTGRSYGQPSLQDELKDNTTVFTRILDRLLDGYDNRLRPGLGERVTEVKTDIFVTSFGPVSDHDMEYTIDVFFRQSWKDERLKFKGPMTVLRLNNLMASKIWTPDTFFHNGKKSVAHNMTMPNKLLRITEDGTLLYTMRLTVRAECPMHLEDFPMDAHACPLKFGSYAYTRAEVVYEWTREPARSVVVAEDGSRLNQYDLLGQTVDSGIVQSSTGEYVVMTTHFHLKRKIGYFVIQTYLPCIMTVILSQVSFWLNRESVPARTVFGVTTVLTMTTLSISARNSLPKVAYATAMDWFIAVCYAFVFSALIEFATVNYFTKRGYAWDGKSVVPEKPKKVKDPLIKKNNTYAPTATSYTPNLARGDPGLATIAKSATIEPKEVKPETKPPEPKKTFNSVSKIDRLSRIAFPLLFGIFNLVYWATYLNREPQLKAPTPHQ
T1 sequence (P47870 whole entry): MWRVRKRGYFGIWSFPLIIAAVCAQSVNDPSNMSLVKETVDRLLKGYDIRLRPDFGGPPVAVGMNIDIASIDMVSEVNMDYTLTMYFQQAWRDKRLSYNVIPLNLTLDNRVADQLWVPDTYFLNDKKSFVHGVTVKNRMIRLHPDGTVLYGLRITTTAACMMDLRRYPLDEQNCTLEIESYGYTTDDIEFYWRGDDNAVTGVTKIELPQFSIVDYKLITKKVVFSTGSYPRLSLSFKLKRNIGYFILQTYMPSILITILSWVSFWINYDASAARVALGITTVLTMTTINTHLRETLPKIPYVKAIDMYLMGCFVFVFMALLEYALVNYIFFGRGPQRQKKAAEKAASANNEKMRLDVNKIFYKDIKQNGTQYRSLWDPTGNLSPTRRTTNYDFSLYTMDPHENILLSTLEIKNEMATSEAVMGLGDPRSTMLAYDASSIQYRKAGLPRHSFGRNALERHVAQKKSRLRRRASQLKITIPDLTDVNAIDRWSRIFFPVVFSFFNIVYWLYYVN
T1 sequence (P18507 whole entry): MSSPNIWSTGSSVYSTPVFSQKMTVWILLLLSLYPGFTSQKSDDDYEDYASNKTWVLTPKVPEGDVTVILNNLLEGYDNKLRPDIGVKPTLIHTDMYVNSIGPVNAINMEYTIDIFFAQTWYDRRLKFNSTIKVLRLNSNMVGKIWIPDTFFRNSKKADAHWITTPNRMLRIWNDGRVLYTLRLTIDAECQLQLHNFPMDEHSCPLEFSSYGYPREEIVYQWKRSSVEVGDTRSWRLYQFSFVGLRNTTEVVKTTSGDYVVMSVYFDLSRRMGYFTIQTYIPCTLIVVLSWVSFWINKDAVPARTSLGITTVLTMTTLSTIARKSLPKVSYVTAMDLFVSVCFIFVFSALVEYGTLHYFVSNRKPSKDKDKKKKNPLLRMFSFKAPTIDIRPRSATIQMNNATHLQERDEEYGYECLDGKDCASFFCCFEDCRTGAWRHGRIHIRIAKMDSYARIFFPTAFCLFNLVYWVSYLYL

[5] = Metabolic stability in human liver microsomes assessed as intrinsic clearance at 1 uM preincubated for 10 mins followed by NADPH addition by LC-MS analysis; format: ADME, Microsome; details: read-out: CLH
[6] = Metabolic stability in Sprague-Dawley rat liver microsomes assessed as compound remaining at 1 uM preincubated for 10 mins followed by NADPH addition by LC-MS analysis; format: ADME, Microsome; details: read-out: Stability
[7] = Drug concentration in Sprague-Dawley rat brain at 24.4 micromol/kg, IG measured after 0.5 hrs by LC-MS/MS analysis; format: ADME, tissue-based; details: in vivo, po, dose 24.4 µmol/kg
[8] = biological target: Gamma-aminobutyric acid receptor subunit alpha-4/beta3/delta (Homo sapiens, UniProt O14764+P28472+P48169); assay: as §1, with “amplitude” for “amplitude by measuring maximal efficacy at 0.01 to 10 uM”, “assay” for “assay relative to control”; format: cell-based
[9] = Drug concentration in Sprague-Dawley rat brain at 24.4 micromol/kg, IG measured after 2 hrs by LC-MS/MS analysis; format: ADME, tissue-based; details: in vivo, po, dose 24.4 µmol/kg
[10] = biological target: GABA-A receptor; alpha-1/beta-2/gamma-2 (Homo sapiens) (UniProt P14867+P47870+P18507); assay: as §1, with “synaptic alpha1beta2gamma2” for “extrasynaptic alpha4beta3delta”, “LTK” for “CHO”, “Q-patch” for “manual patch”; format: cell-based; details: filed as positive allosteric modulator, dose 0.01-10 µM, time 32.0 sec
[11] = Metabolic stability in human liver microsomes assessed as compound remaining at 1 uM preincubated for 10 mins followed by NADPH addition by LC-MS analysis; format: ADME, Microsome; details: read-out: Stability
[12] = biological target: GABA-A receptor; anion channel; assay: Inhibition of [35S]TBPS binding to GABA-A receptor in Sprague-Dawley rat brain cortical membrane incubated for 90 mins by liquid scintillation spectrometry; format: cell membranes, Cortex

Chain of Gamma-aminobutyric acid receptor subunit alpha-4/beta3/delta (P28472 whole entry): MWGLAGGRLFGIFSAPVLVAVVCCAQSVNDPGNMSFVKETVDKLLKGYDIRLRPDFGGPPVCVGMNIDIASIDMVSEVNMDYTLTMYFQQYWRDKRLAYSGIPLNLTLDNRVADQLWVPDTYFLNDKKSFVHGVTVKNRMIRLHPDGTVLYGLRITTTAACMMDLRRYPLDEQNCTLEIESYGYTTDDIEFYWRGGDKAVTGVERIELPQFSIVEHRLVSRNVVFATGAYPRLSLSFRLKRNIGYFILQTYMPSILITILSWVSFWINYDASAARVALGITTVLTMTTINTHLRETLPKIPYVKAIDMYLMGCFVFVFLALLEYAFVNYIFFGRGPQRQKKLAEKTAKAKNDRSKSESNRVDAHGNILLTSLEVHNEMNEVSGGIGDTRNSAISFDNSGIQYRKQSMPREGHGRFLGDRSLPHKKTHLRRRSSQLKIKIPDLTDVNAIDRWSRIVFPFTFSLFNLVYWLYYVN
Chain of Gamma-aminobutyric acid receptor subunit alpha-4/beta3/delta (P48169 whole entry): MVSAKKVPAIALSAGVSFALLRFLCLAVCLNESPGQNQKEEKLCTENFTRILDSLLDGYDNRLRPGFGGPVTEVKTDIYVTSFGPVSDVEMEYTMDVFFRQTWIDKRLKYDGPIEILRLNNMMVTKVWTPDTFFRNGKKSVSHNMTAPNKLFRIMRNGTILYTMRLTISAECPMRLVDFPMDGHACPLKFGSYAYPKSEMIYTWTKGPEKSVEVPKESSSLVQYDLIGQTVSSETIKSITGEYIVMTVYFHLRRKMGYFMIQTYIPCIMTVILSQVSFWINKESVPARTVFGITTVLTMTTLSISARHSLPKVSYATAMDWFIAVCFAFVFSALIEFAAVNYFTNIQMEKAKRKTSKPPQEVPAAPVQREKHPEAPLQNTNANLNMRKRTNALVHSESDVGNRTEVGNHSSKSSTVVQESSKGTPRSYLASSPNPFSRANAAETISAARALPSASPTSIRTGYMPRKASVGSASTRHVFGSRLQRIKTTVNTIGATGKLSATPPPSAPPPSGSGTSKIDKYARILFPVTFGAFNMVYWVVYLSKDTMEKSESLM
Chain of Gamma-aminobutyric acid receptor subunit alpha-4/beta3/delta (O14764 whole entry): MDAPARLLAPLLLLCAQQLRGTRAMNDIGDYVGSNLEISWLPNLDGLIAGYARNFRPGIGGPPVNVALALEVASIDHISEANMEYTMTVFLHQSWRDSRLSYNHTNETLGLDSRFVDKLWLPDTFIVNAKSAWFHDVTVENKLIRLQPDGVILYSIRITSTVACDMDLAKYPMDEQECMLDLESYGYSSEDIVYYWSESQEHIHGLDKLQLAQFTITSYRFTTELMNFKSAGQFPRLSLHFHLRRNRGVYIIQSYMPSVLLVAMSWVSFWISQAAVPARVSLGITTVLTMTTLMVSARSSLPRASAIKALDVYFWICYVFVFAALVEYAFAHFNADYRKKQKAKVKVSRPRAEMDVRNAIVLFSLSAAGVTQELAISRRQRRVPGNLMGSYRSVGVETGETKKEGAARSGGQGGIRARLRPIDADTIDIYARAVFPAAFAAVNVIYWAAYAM

Structure (SMILES)	Emax [1] [%]	CLint scaled at 1 µM [2] [mL/min/kg]	Ct [3] [nmol/kg]	EC50 [4] [nM]	CLint scaled at 1 µM [5] [mL/min/kg]	remaining at 1 µM [6] [%]	Ct [7] [nmol/kg]	EC50 [8] [nM]	Ct [9] [nmol/kg]	Emax [10] [%]	remaining at 1 µM [11] [%]	IC50 [12] [nM]	Ct ([3]; BLD = below limit of detection)	Ct ([9]; BLD = below limit of detection)
C[C@@]1(O)CC[C@H]2[C@H](CC[C@@H]3[C@@H]2CC[C@]2(C)[C@@H](C(=O)Cn4cnn(-c5ccnc(F)c5)c4=O)CC[C@@H]32)C1	913	69	764	109	23	32.2	708	56	1188	775	48.1			
C[C@@]1(O)CC[C@H]2[C@H](CC[C@@H]3[C@@H]2CC[C@]2(C)[C@@H](C(=O)Cn4cnn(-c5cccc(F)c5)c4=O)CC[C@@H]32)C1	440	44	792	56	3.9	44.5	1708	10	1530	566	89	1.2		
C[C@@]1(O)CC[C@H]2[C@H](CC[C@@H]3[C@@H]2CC[C@]2(C)[C@@H](C(=O)Cn4nnn(-c5cccc(F)c5)c4=O)CC[C@@H]32)C1	602	105		37	11	15.6	948	23		1120	70	1	Bld	Bld
